Experiment [1] deals with B6.Apc^Min/+ model of intestinal neoplasia. Description: Polyp number and cross sectional polyp area in B6.Apc^Min/+ mice treated with C5aR antagonist on HFCoco diet. It is filed as in vivo, mouse. The settings on record: 1 mg/kg subcutaneously every other day for 30 days. From the text:
B6.Apc^Min/+ is a mouse model for intestinal neoplasia that carry a mutation in the Apc gene similar to that found in over 85% of sporadic colon cancer cases in humans. The APC mutation results in improper binding of β-catenin to the degradation complex and models the mutation observed in most sporadic human colon cancer tumors. B6.Apc^Min/+ mice develop 50-80 intestinal polyps in the small intestine by 120 days of age (Heijstek et al., 2005, Digest Surg. 22: 16-25). The APC amino acid sequence is 90% identical to that of the human APC.
B6.Apc^Min/+ and the CCSs (A2.Apc^Min/+, A7.Apc^Min/+, A9.Apc^Min/+, A17.Apc^Min/+, and A19.Apc^Min/+) along with the corresponding wild-type controls (B6, B6.A2, B6.A7, B6.A9, B6.A17 and B6.A19, respectively) were born and maintained on the standard 5010 diet until 30 days of age. Male mice were genotyped for the APC mutation using DNA that was purified from tail tissue taken at weaning. […] Body weight and length (to calculate BMI) as well as epidydimal fat pad mass were measured at the final time point.
Body weight and length were measured to calculate body mass index (BMI). Polyp number and polyp size from the small and large intestine were measured. […] The large intestine was excised and analyzed as one region (LI-1). […]

The subject of experiment [2] is activated AKT (pS473), IKK (pS176) and NFκB (pS536). Description: Western analysis of intestinal tissue of treated B6.Apc^Min/+ mice (NFκB signaling). Format: in vivo, mouse. The following applies: after 30 days on HFCoco diet and treatment; compared to control inhibitor. From the text:
To test the function of this reduction in polyp number in mice treated with the C5aR inhibitor, intestinal tissues were collected and used to extract RNA and protein for expression and western analysis, respectively.

On to “Acetyl-Phe-[Orn-Pro-D-cyclohexylalanine-Trp-Arg] [PMX-53]”, for which the “cross sectional polyp area” value in experiment [1] is “significantly reduced”. Besides, the polyp number result in experiment [1] (compared to untreated mice or mice injected with control inhibitor) is given as “significant reduction”. In experiment [2], the “activated AKT (pS473) protein level in intestine” value is recorded as “significant reduction”, the “activated IKK (pS176) protein level in intestine” value is recorded as “significant reduction” and the “activated NFκB (pS536) protein level in intestine” value is given as “significant reduction”.

Source of the values: patent publication US20140219999A1, “TREATMENT OF COLON CANCER USING COMPLEMENT INHIBITORS” (priority 2011, published 2014).
